Test results published in patent publication US20220324835A1 (Nurix Therapeutics, Inc., priority 2018, published 2022).
Read-outs that look alike come from different tables or passages of the source.

How the values were obtained:
Cbl-b [1] = molecular target: T1, Cbl-b (Homo sapiens, UniProt Q13191); test: Cbl-b inhibition assay (Cbl-b activity assay, FRET, Biological Example 1; 100 mM NaCl, 60 nM Src kinase); type: biochemical; conditions: upper bound stated in text lists; read-out: IC50 values in the Cbl-b inhibition assay of Biological Example 1
T1 sequence (Q13191 36-427): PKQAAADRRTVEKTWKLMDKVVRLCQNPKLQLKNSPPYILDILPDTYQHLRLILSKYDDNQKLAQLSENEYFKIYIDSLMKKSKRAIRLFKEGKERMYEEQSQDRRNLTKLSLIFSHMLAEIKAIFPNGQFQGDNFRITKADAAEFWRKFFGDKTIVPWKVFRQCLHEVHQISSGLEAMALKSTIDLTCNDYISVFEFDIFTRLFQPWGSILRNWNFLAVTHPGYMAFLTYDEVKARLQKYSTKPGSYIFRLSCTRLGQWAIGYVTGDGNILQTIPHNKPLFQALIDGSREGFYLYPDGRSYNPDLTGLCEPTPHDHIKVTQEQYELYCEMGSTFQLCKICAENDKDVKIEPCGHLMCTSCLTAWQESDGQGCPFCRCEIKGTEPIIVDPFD
Summary of the method: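 Steps: Src kinase phosphorylates N-terminal biotinylated Avi-tagged Cbl-b; phosphorylated Cbl-b binds Bodipy-fluorescein ubiquitin-loaded UbcH5B; streptavidin-terbium on Cbl-b sits close to the fluorescein label, producing FRET. Inhibitors block UbcH5B-Ub binding.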

T-cell = test: CD25 cell surface staining on T-cells stimulated with anti-CD3 antibody alone (Biological Example 2); type: cell-based, human; conditions: T-cell, read-out: CD25 staining Anti-CD3 stimulation; for fold induction at 1 µM: 1 μM Cbl-b inhibitor; for fold induction at 8 µM: 8 μM Cbl-b inhibitor
Cbl-b [2] = molecular target: T1, Cbl-b; test: Cbl-b activity assay (Cbl-b inhibition assay), TR-FRET of Cbl-b interaction with UbcH5B-Ub; type: biochemical; conditions: assay buffer with 100 mM NaCl, 60 nM Src kinase; read-out: Cbl-b activity IC50
Summary of the method: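 UbcH5B (C85K) conjugated to N-terminally Bodipy-Fluorescein-labeled ubiquitin served as the fluorescent partner. After compound preincubation, Src kinase (60 nM) with 1 mM ATP and 5 mM MgCl2 (final) was added for 1.5 h, followed by a further 1 h incubation. Some values were obtained with 50 mM NaCl and 30 nM Src.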

[3] = test system: human T-cells with allogenic immature dendritic cells; test: Allogenic mixed lymphocyte reaction (MLR), T-cell proliferation; type: cell-based; conditions: 120 h, 5 days, baseline T-cells without Cbl-b inhibitor, read-out: Proliferation, fold change over baseline
Description: Cbl-b inhibitor effects on primary human T-cells were also evaluated in the context of an allogenic mixed lymphocyte reaction (MLR). Allogenic immature dendritic cells were generated under the following conditions. Peripheral blood mononuclear cells (PBMC) were obtained either: 1) by using Ficoll-Paque™ (GE Healthcare) for separation of peripheral blood hematopoietic cells from huffy coats of healthy human donors; or 2) directly from LeukoPak donations. […] Monocytes were cultured with 30 ng/mL of recombinant human GM-CSF and 20 ng/mL of recombinant human IL-4 for seven days to generate immature dendritic cells. Monocytes and T-cells were either isolated fresh from peripheral blood or thawed from frozen stocks. Human T-cells were isolated, labeled with CFSE and incubated with inhibitors as described above. […] Proliferation of the T-cells was evaluated by flow cytometry.
Readouts for the allogenic mixed lymphocyte reaction were reported as fold change over baseline. Baseline for this study was the measurement obtained from total human T-cells stimulated with allogenic immature dendritic cells, wherein the T-cells were not incubated with a Cbl-b inhibitor (Table 5). Increases in proliferation greater than 2-fold over baseline were considered a positive response (Table 5).

[4] = fold change over baseline, primary human total T-cells

Structure (SMILES)	IC50 (Cbl-b [1])	fold induction at 1 µM (T-cell; [4])	fold induction at 8 µM (T-cell; [4])	IC50 (Cbl-b [2])	fold induction at 3 µM [3]	fold induction at 10 µM [3]	fold induction at 1 µM (T-cell; Homo sapiens, fold change over baseline (anti-CD3/anti-CD28 stimulated T-cells without inhibitor))
C[C@H](Sc1nncn1C)c1cccc(NC(=O)c2cc(C(=O)N3CC[C@H](O)C3)ccn2)c1 [Compound 140, 4-[[(3S)-3-hydroxypyrrolidin-1-yl]carbonyl]-N-[3-[(1S)-1-[(4-methyl-4H-1,2,4-triazol-3-yl)sulfanyl]ethyl]phenyl]pyridine-2-carboxamide]	≤ 500 nM	0.601 to 0.8	0.801 to 1	100 to 300 nM	< 2	< 2	–
C[C@H](Cc1nncn1C)c1cccc(NC(=O)c2cccc(CCO)n2)c1 [Compound 202, 6-(2-hydroxyethyl)-N-[3-[(2R)-1-(4-methyl-4H-1,2,4-triazol-3-yl)propan-2-yl]phenyl]pyridine-2-carboxamide]	≤ 1000 nM	< 0.6	0.801 to 1	301 to 1000 nM	< 2	< 2	–
C[C@H](Cc1nncn1C)c1cccc(N2Cc3c(ccnc3C3CC3)C2=O)c1 [Compound 257, 4-cyclopropyl-2-[3-[(1R)-1-methyl-2-(4-methyl-1,2,4-triazol-3-yl)ethyl]phenyl]-3H-pyrrolo[3,4-c]pyridin-1-one]	≤ 500 nM	0.601 to 0.8	> 1	100 to 300 nM	< 2	< 2	–
C[C@H](Cc1nncn1C)c1cc(F)cc(N2Cc3c(cccc3C(F)(F)F)C2=O)c1 [Compound 281a, 2-[3-Fluoro-5-[(1R)-1-methyl-2-(4-methyl-1,2,4-triazol-3-yl)ethyl]phenyl]-4-(trifluoromethyl)isoindolin-1-one]	≤ 500 nM	0.801 to 1	> 1	100 to 300 nM	–	–	–
Cn1cnnc1[C@@H]1C[C@@H]1c1cccc(N2Cc3c(cccc3C(F)(F)F)C2=O)c1 [Compound 282, 2-(3-((1S,2R)-2-(4-methyl-4H-1,2,4-triazol-3-yl)cyclopropyl)phenyl)-4-(trifluoromethyl)isoindolin-1-one]	≤ 500 nM	0.601 to 0.8	> 1	301 to 1000 nM	< 2	< 2	–
Cn1cnnc1[C@@H]1CC[C@@H]1c1cccc(N2Cc3c(cccc3C(F)(F)F)C2=O)c1 [Compound 283b, 2-(3-((1S,2R)-2-(4-methyl-4H-1,2,4-triazol-3-yl)cyclobutyl)phenyl)-4-(trifluoromethyl)isoindolin-1-one]	≤ 500 nM	0.601 to 0.8	0.801 to 1	301 to 1000 nM	–	–	–
Cc1ccc(C(=O)Nc2cccc(C(C)C(F)(F)c3nncn3C)c2)nc1C1CC1 (stereo not shown) [Compound 286, 6-cyclopropyl-N-(3-(1,1-difluoro-1-(4-methyl-4H-1,2,4-triazol-3-yl)propan-2-yl)phenyl)-5-methylpicolinamide]	≤ 500 nM	0.801 to 1	> 1	100 to 300 nM	–	–	–
Cn1cnnc1C(F)(F)[C@](C)(F)c1cccc(N2Cc3c(cccc3C(F)(F)F)C2=O)c1 [Compound 296a, (R)-2-(3-(1,1,2-trifluoro-1-(4-methyl-4H-1,2,4-triazol-3-yl)propan-2-yl)phenyl)-4-(trifluoromethyl)isoindolin-1-one]	≤ 500 nM	0.601 to 0.8	> 1	100 to 300 nM	–	–	–
Cn1cnnc1C[C@](C)(F)c1cccc(N2Cc3c(cccc3C(F)(F)F)C2=O)c1 [Compound 298b, (S)-2-(3-(2-fluoro-1-(4-methyl-4H-1,2,4-triazol-3-yl)propan-2-yl)phenyl)-4-(trifluoromethyl)isoindolin-1-one]	≤ 500 nM	0.601 to 0.8	0.801 to 1	100 to 300 nM	–	–	–
C[C@H](Cc1nncn1C)c1ccnc(NC(=O)c2cccc(C(F)(F)F)n2)c1 [Compound 302, (R)-N-(4-(1-(4-methyl-4H-1,2,4-triazol-3-yl)propan-2-yl)pyridin-2-yl)-6-(trifluoromethyl)picolinamide]	≤ 1000 nM	< 0.6	0.801 to 1	301 to 1000 nM	< 2	< 2	–
C[C@H](Cc1nncn1C)c1ccnc(N2Cc3c(cccc3C(F)(F)F)C2=O)c1 [Compound 304b, (R)-2-(4-(1-(4-methyl-4H-1,2,4-triazol-3-yl)propan-2-yl)pyridin-2-yl)-4-(trifluoromethyl)isoindolin-1-one]	≤ 500 nM	< 0.6	< 0.6	301 to 1000 nM	–	–	–
C[C@H](Cc1nncn1C)c1cccc(NC(=O)c2nc(C(F)(F)F)c[nH]2)c1 [Compound 326, (R)-N-(3-(1-(4-methyl-4H-1,2,4-triazol-3-yl)propan-2-yl)phenyl)-4-(trifluoromethyl)-1H-imidazole-2-carboxamide]	≤ 300 nM	0.801 to 1	> 1	100 to 300 nM	< 2	< 2	–
Cn1cnnc1[C@@H]1C[C@@H]1c1cccc(NC(=O)c2nc3c(C(F)(F)F)cccc3[nH]2)c1 [Compound 332, N-(3-((1S,2R)-2-(4-methyl-4H-1,2,4-triazol-3-yl)cyclopropyl)phenyl)-4-(trifluoromethyl)-1H-benzo[d]imidazole-2-carboxamide]	≤ 300 nM	0.601 to 0.8	0.801 to 1	100 to 300 nM	–	–	–
Cc1cc(C(=O)Nc2cccc([C@@](C)(F)C(F)(F)c3nncn3C)c2)nc(C2CC2)n1 [Compound 344, (R)-2-Cyclopropyl-6-methyl-N-(3-(1,1,2-trifluoro-1-(4-methyl-4H-1,2,4-triazol-3-yl)propan-2-yl)phenyl)pyrimidine-4-carboxamide]	≤ 300 nM	0.801 to 1	> 1	100 to 300 nM	–	–	–
C[C@H](Cc1nncn1C)c1cc(NCCO)nc(N2Cc3c(cccc3C(F)(F)F)C2=O)c1 [Compound 357, (R)-2-(6-(2-hydroxyethylamino)-4-(1-(4-methyl-4H-1,2,4-triazol-3-yl)propan-2-yl)pyridin-2-yl)-4-(trifluoromethyl)isoindolin-1-one]	≤ 300 nM	0.601 to 0.8	> 1	100 to 300 nM	–	–	–
Cn1cnnc1[C@@H]1C[C@@H]1c1cccc(N2Cc3c(ccnc3C(F)(F)F)C2=O)c1 [Compound 369, 2-{3-[(1S,2R)-2-(4-methyl-4H-1,2,4-triazol-3-yl)cyclopropyl]phenyl}-4-(trifluoromethyl)-1H,2H,3H-pyrrolo[3,4-c]pyridin-1-one]	–	–	–	301 to 1000 nM	< 2	< 2	–
Cc1cc2c(c(C3CC3)n1)CN(c1cccc([C@H](C)Cc3nncn3C)c1)C2=O [Compound 372, 4-cyclopropyl-6-methyl-2-{3-[(2R)-1-(4-methyl-4H-1,2,4-triazol-3-yl)propan-2-yl]phenyl}-1H,2H,3H-pyrrolo[3,4-c]pyridin-1-one]	–	–	–	301 to 1000 nM	< 2	< 2	–
CNCc1ccc(C(=O)Nc2cccc([C@H](C)Cc3nncn3C)c2)nc1C1CC1 [Compound 376, (R)-6-cyclopropyl-N-(3-(1-(4-methyl-4H-1,2,4-triazol-3-yl)propan-2-yl)phenyl)-5-((methylamino)methyl)picolinamide]	≤ 300 nM	–	–	100 to 300 nM	< 2	< 2	–
C[C@H](Cc1nncn1C)c1cc(-c2cn[nH]c2)nc(N2Cc3c(cccc3C(F)(F)F)C2=O)c1 [Example 684, (R)-2-(4-(1-(4-methyl-4H-1,2,4-triazol-3-yl)propan-2-yl)-6-(1H-pyrazol-4-yl)pyridin-2-yl)-4-(trifluoromethyl)isoindolin-1-one]	≤ 1000 nM	–	–	301 to 1000 nM	–	–	< 0.6
